Data as given in patent publication US11970483B2, “Heterocyclic compound” (Takeda Pharmaceutical Company Limited, priority 2018, dated 2024).

target: T1, human M1 receptor (hCHRM1) (Homo sapiens, UniProt P11229); assay: Measurement of M1 receptor positive allosteric modulator (M1PAM) activity (IP1 HTRF, in presence of EC20 acetylcholine); assay type: cell-based; conditions: CHO-K1 cells stably expressing hCHRM1; acetylcholine at EC20 concentration; IP1 readout
T1 construct: expressed in transfected cells
T1 sequence (P11229 1-460): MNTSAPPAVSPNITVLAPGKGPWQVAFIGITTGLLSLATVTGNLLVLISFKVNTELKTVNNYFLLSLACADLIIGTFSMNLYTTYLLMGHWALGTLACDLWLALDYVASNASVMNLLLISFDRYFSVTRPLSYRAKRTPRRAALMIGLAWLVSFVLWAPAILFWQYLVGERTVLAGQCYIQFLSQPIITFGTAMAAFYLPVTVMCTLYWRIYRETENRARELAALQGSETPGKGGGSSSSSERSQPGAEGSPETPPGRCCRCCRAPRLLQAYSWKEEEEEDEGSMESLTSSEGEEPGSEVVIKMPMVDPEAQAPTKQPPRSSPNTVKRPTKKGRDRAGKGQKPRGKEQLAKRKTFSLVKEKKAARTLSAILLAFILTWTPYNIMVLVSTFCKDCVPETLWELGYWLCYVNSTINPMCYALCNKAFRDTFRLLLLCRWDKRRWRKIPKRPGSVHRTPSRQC
Experimental: Measurement of M1 Receptor Positive Allosteric Modulator (M1PAM) Activity
The activity of a test compound in the presence of acetylcholine at an EC20 concentration affording about 20% action of the maximum activity was measured as PAM activity.
The method therefor is as follows. To a 384-well white plate (Greiner) was added 4 μL of the test compound diluted with IP1 Stimulation buffer (CisBio) containing 0.1% fatty acid-free BSA containing 80 nM acetylcholine. Freeze stock of CHO-K1 cells stably expressing human M1 receptor (hCHRM1) was prepared with IP1 Stimulation buffer (CisBio) containing 0.1% fatty acid-free BSA, 4 μL thereof was added (10,000 cells/well) and the mixture was cultured in a 5% CO2 incubator at 37° C. for 1 hr. 4 μL of a solution (CisBio) containing IP1-d2 and Anti-IP1-cryptate Tb conjugate was added, the mixture was incubated at room temperature for 1 hr, and the time-resolved fluorescence signal was measured on an Envision plate reader (PerkinElmer). The activity (%) of the test compound was calculated by defining the value when acetylcholine was added at the final concentration of 20 μM as 100% and the value when DMSO was added instead of the test compound under acetylcholine-free conditions as 0%, and the EC50 value was calculated as a value of 50% of the concentration dependence curve of the test compound.

Row | Structure (SMILES) | EC50
1 | Cc1c(Cc2ccc(-c3cnn(C)c3)nc2)cc(C(=O)N[C@H]2CCOC[C@@H]2O)c2c1CCO2 [Example 2, 1,5-anhydro-2,3-dideoxy-3-[{4-methyl-5-{[6-(1-methyl-1H-pyrazol-4-yl)pyridin-3-yl]methyl}-2,3-dihydro-1-benzofuran-7-carbonyl)amino]-L-threo-pentitol] | 33 nM
2 | Cc1nn(C)cc1-c1ccc(Cc2cc(C(=O)N[C@H]3CCOC[C@@H]3O)c3c(c2C)CCO3)cn1 [Example 3, 1,5-anhydro-2,3-dideoxy-3-[(5-{[6-(1,3-dimethyl-1H-pyrazol-4-yl)pyridin-3-yl]methyl}-4-methyl-2,3-dihydro-1-benzofuran-7-carbonyl)amino]-L-threo-pentitol] | 46 nM
3 | Cc1c(Cc2ccc(C(N)=O)cc2)cc(C(=O)N[C@H]2CCOC[C@@H]2O)c2c1CCO2 [Example 5, 1,5-anhydro-3-({5-[(4-carbamoylphenyl)methyl]-4-methyl-2,3-dihydro-1-benzofuran-7-carbonyl}amino)-2,3-dideoxy-L-threo-pentitol] | 12 nM
4 | CNC(=O)c1ccc(Cc2cc(C(=O)N[C@H]3CCOC[C@@H]3O)c3c(c2C)CCO3)cc1F [Example 21, 1,5-anhydro-2,3-dideoxy-3-[(5-{[3-fluoro-4-(methylcarbamoyl)phenyl]methyl)-4-methyl-2,3-dihydro-1-benzofuran-7-carbonyl)amino]-L-threo-pentitol] | 24 nM
5 | Cc1c(Cc2ccc(C(=O)NC[C@@H]3CCCO3)c(F)c2)cc(C(=O)N[C@H]2CCOC[C@@H]2O)c2c1CCO2 [Example 30, 1,5-anhydro-2,3-dideoxy-3-[(5-{[3-fluoro-4-({[(2S)-oxolan-2-yl]methyl}carbamoyl)phenyl]methyl}-4-methyl-2,3-dihydro-1-benzofuran-7-carbonyl)amino]-L-threo-pentitol] | 56 nM
6 | Cc1c(Cc2ccc(C(=O)NC3CC3)c(F)c2)cc(C(=O)N[C@H]2CCOC[C@@H]2O)c2c1CCO2 [Example 31, 1,5-anhydro-3-[(5-{[4-(cyclopropylcarbamoyl)-3-fluorophenyl]methyl}-4-methyl-2,3-dihydro-1-benzofuran-7-carbonyl)amino]-2,3-dideoxy-L-threo-pentitol] | 37 nM
7 | Cc1c(Cc2ccc(C(=O)NCCF)c(F)c2)cc(C(=O)N[C@H]2CCOC[C@@H]2O)c2c1CCO2 [Example 35, 1,5-anhydro-2,3-dideoxy-3-{[5-({3-fluoro-4-[(2-fluoroethyl)carbamoyl]-phenyl}methyl)-4-methyl-2,3-dihydro-1-benzofuran-7-carbonyl]amino}-L-threo-pentitol] | 16 nM
8 | CNC(=O)c1ccc(Cc2cc(C(=O)N[C@H]3CCOC[C@@H]3O)c3c(c2C)CCO3)cn1 [Example 36, 1,5-anhydro-2,3-dideoxy-3-[(4-methyl-5-{[6-(methylcarbamoyl)pyridin-3-yl]methyl}-2,3-dihydro-1-benzofuran-7-carbonyl)amino]-L-threo-pentitol] | 130 nM
